According to US7109193B2, “Tricyclic diazepines tocolytic oxytocin receptor antagonists” (Wyeth, priority 2001, dated 2006):

Target: T1, human oxytocin receptor (Homo sapiens, UniProt P30559)
T1 construct: host or cells: CHO cells (pcDNA3.1 vector)
T1 sequence (P30559 1-389): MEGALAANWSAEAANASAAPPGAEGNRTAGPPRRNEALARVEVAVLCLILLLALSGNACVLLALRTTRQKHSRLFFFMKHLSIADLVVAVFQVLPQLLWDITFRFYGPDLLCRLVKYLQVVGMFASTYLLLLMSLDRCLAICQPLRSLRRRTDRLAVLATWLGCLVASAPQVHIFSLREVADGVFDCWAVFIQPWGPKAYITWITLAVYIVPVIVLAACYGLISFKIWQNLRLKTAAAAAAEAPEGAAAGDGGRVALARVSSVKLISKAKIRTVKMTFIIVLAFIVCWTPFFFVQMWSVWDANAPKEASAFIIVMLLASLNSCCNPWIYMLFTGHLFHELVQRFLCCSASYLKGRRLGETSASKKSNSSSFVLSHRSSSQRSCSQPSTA
Assay: Oxytocin binding in Chinese Hamster Ovary cell membranes expressing human oxytocin receptors
Conditions: 100 nM, CHO cell membranes, [3H]oxytocin, values without parentheses; for inhibition at 0.1 µM: read-out: OT % inhibition @ 100% nM
Method: Oxytocin Binding in Chinese Hamster Ovary Cell Membranes Expressing Human Oxytocin Receptors
The trypsin is removed by aspiration and the cells dislodged by tapping. Cell Culture medium (e.g. 30 mL for 1:30 split) is immediately added and mixed well to inactivate trypsin. 1 mL of detached cells is added to new culture flasks containing fresh Cell Culture medium (e.g. into 25 mL per T-150 flask), and mixed gently. The cells are incubated at 37° C. in 5% CO2. The medium is changed at 3 to 4 days interval (or as appropriate). […] All steps are done under sterile conditions. B. Membrane Preparation: The cells are washed twice gently with Hank's Balanced Salt solution (e.g., use 10 mL per T-150 flask). […] The contents are transferred to centrifuge tubes (50 mL size) kept in ice bath. All subsequent steps are done at 4° C. The tubes are centrifuged at 300×g for 15 min (1380 rpm on SORVAL, Model RT6000D, using rotor for 50 mL tubes). The supernatant is discarded and the cells suspended in homogenizing buffer (10 mM Tris-HCl containing 0.25 M sucrose and 1 mM EDTA, pH 7.4) ensuring that the volume of the buffer is about ten times the volume of the cell pellet. The cells are pooled into a centrifuge tube (50 mL) and homogenized with a Polytron at setting 6 for 10 sec. The homogenate is transferred into a Potter-Elvjehm homogenizer and homogenized with 3 strokes. The homogenate is centrifuged at 1500×g for 10 min at 4° C. (3100 rpm using SORVAL, model RT6000D, using rotor for 50 mL tubes). The pellet is discarded. The supernatant is centrifuged at 100,000×g for 60 min. at 4° C. (Beckman L8-80M ultracentrifuge; spin at 37,500 rpm with rotor type 70 Ti for 50 mL tubes; 38,000 rpm with type 80Ti for 15 mL tubes; or 35,800 rpm with rotor type 45Ti). The supernantant is discarded and the pellet suspended in 3 to 4 mL of Tris buffer (50 mM TRIS-HCl, pH 7.4). The protein content is estimated by the Bradford or Lowry method. The volume of the membrane suspension is adjusted with the membrane buffer (50 mM Tris-HCl containing 0.1% BSA and 0.1 mM PMSF) to give 3.0 mg/mL (or as appropriate) of protein. The membranes are aliquoted and stored at −70° C. C. Radioligand Binding Assay: In wells of a 96-well format microtiter plate, is added 90, 110 or 130 μL (to make up a final volume of 200 μL) of assay buffer containing 50 mM of Tris-HCl (pH 7.4), […], 1 mg % aprotinin, 1 mg % leupeptin, 2 mg % 1,10-phenanthroline, 10 mg % trypsin inhibitor, and 0.1 mM PMSF. The inhibitors are added on the day of the experiment. The components are mixed at room temperature, and then kept in ice bath following adjustment of the pH to 7.4. […] For oxytocin and other peptide ligands, 20 μL of 50% DMSO is added and the assay buffer volume is adjusted accordingly. To each well is added 50 μL of frozen membrane suspension thawed immediately prior to use and diluted in assay buffer to the required concentration (equivalent to 25 to 50 μg of protein/well as needed). 20 μL of 8 nM [^3H]oxytocin in the assay buffer, prepared just before use is added and incubated at room temperature for 60 min. shaking the plate on a mechanical shaker for the first 15 min. The incubation is stopped by rapid filtration of the plate contents followed by washing with ice-cold buffer (50 mM Tris-HCl, pH 7.4) using a cell harvester (Tomtek and Printed filtermat-B filter paper). The filter paper is thoroughly dried (7–12 min. in a microwave oven) and impregnated with MeltiLex B/H melt-on scintillation wax sheets and the radioactivity counted in a betaplate scintillation counter.
Binding data is either reported as percent inhibition at a certain concentration or if an IC50 was calculated, as a nanomolar concentration.

Compound	OT % inhibition @ 100% nM	inhibition at 0.1 µM
COc1ccccc1-c1ccc(C(=O)N2Cc3ccc(C(=O)N4CCC[C@H]4CN4CCCC4)n3Cc3ccccc32)cc1C [Example 259, {10-[(2′-Methoxy-2-methyl[1,1′-biphenyl]-4-yl)carbonyl]-10,11-dihydro-5H-pyrrolo[2,1-c][1,4]benzodiazepin-3-yl}[(2S)-2-(1-pyrrolidinylmethyl)pyrrolidinyl]methanone]	97%	–
COc1cccc(-c2ccc(C(=O)N3Cc4ccc(C(=O)N5CCC(N6CCCC6)CC5)n4Cc4ccccc43)cc2OC)c1 [Example 146, {10-[(2,3′-Dimethoxy[1,1′-biphenyl]-4-yl)carbonyl]-10,11-dihydro-5H-pyrrolo[2,1-c][1,4]benzodiazepin-3-yl}[4-(1-pyrrolidinyl)-1-piperidinyl]methanone]	–	78%
COc1ccccc1-c1ccc(C(=O)N2Cc3ccc(C(=O)N4CCC(N5CCCC5)CC4)n3Cc3ccccc32)cc1 [Example 140, {10-[(2′-Methoxy[1,1′-biphenyl]-4-yl)carbonyl]-10,11-dihydro-5H-pyrrolo[2,1-c][1,4]benzodiazepin-3-yl}[4-(1-pyrrolidinyl)-1-piperidinyl]methanone]	–	87%
COc1cccc(-c2ccc(C(=O)N3Cc4ccc(C(=O)N5CC[C@@H](N(C)C)C5)n4Cc4ccccc43)cc2OC)c1 [Example 283, {10-[(2,3′-Dimethoxy[1,1′-biphenyl]-4-yl)carbonyl]-10,11-dihydro-5H-pyrrolo[2,1-c][1,4]benzodiazepin-3-yl}[(3R)-3-(dimethylamino)pyrrolidinyl]methanone]	91%	–
COc1cc(C(=O)N2Cc3ccc(C(=O)N4CC[C@@H](N(C)C)C4)n3Cc3ccccc32)ccc1-c1ccccc1C [Example 281, [(3R)-3-(Dimethylamino)pyrrolidinyl]{10-[(2-methoxy-2′-methyl[1,1′-biphenyl]-4-yl)carbonyl]-10,11-dihydro-5H-pyrrolo[2,1-c][1,4]benzodiazepin-3-yl}methanone]	93%	–
COc1ccccc1-c1ccc(C(=O)N2Cc3ccc(C(=O)N4CCC(N5CCCCC5)CC4)n3Cc3ccccc32)cc1OC [Example 119, {10-[(2,2′-Dimethoxy-[1,1′-biphenyl]-4-yl)carbonyl]-10,11-dihydro-5H-pyrrolo[2,1-c][1,4]benzodiazepin-3-yl}[4-(1-piperidinyl)-1-piperidinyl]methanone]	–	58%
COc1cc2c(cc1OC)N(C(=O)c1ccc(-c3ccccc3C(F)(F)F)c(C)c1)Cc1ccc(C(=O)N3CCC(=O)CC3)n1C2 [Example 14, 7,8-Dimethoxy-10-{[2-methyl-2′-(trifluoromethyl)-[1,1′-biphenyl]-4-yl]carbonyl}-[(10,11-dihydro-5H-pyrrolo[2,1-c][1,4]benzodiazepin-3-yl)carbonyl]-4-piperidinone]	9%	–
COc1cccc(-c2ccc(C(=O)N3Cc4ccc(C(=O)N5CCC(N6CCCCC6)CC5)n4Cc4ccccc43)cc2C)c1 [Example 114, {10-[(2-Methyl-3′-methoxy[1,1′-biphenyl]-4-yl)carbonyl]-10,11-dihydro-5H-pyrrolo[2,1-c][1,4]benzodiazepin-3-yl}[4-(1-piperidinyl)-1-piperidinyl]methanone]	–	76%
Cc1ccccc1-c1ccc(C(=O)N2Cc3ccc(C(=O)NCCN4CCCCC4)n3Cc3ccccc32)cc1 [Example 153, 10-[(2′-Methyl[1,1′-biphenyl]-4-yl)carbonyl]-N-[2-(1-piperidinyl)ethyl]-10,11-dihydro-5H-pyrrolo[2,1-c][1,4]benzodiazepine-3-carboxamide]	–	60%
COc1cccc(-c2cc(OC)c(C(=O)N3Cc4ccc(C(=O)N5CCC[C@H]5CN5CCCC5)n4Cc4ccccc43)cc2Cl)c1 [Example 268, {10-[(6-Chloro-3,3′-dimethoxy[1,1′-biphenyl]-4-yl)carbonyl]-10,11-dihydro-5H-pyrrolo[2,1-c][1,4]benzodiazepin-3-yl}[(2S)-2-(1-pyrrolidinylmethyl)pyrrolidinyl]methanone]	90%	–
COc1cccc(-c2ccc(C(=O)N3Cc4ccc(C(=O)N5CCC[C@H]5CN5CCCC5)n4Cc4ccccc43)cc2OC)c1 [Example 270, {10-[(2,3′-Dimethoxy[1,1′-biphenyl]-4-yl)carbonyl]-10,11-dihydro-5H-pyrrolo[2,1-c][1,4]benzodiazepin-3-yl}[(2S)-2-(1-pyrrolidinylmethyl)pyrrolidinyl]methanone]	95%	–
COc1cc(C(=O)N2Cc3ccc(C(=O)N4CC[C@@H](N(C)C)C4)n3Cc3ccccc32)ccc1-n1c(C)ccc1C [Example 322, [(3R)-3-(Dimethylamino)pyrrolidinyl]{10-[4-(2,5-dimethyl-1H-pyrrol-1-yl)-3-methoxybenzoyl]-10,11-dihydro-5H-pyrrolo[2,1-c][1,4]benzodiazepin-3-yl}methanone]	66%	–
COc1cccc(-c2ccc(C(=O)N3Cc4ccc(C(=O)NCCCn5ccnc5)n4Cc4ccccc43)cc2C)c1 [Example 125, N-[3-(1H-Imidazol-1-yl)propyl]-10-[(3′-methoxy-2-methyl[1,1′-biphenyl]-4-yl)carbonyl]-10,11-dihydro-5H-pyrrolo[2,1-c][1,4]benzodiazepine-3-carboxamide]	–	36%
COc1ccccc1-c1ccc(C(=O)N2Cc3ccc(C(=O)NCCN4CCCCC4)n3Cc3ccccc32)cc1C [Example 149, 10-[(2′-Methoxy-2-methyl[1,1′-biphenyl]-4-yl)carbonyl]-N-[2-(1-piperidinyl)ethyl]-10,11-dihydro-5H-pyrrolo[2,1-c][1,4]benzodiazepine-3-carboxamide]	–	75%
O=C(c1ccc(-c2cccc3ccccc23)cc1Cl)N1Cc2ccc(C(=O)N3CCC[C@H]3CN3CCCC3)n2Cc2ccccc21 [Example 261, {10-[2-Chloro-4-(1-naphthyl)benzoyl]-10,11-dihydro-5H-pyrrolo[2,1-c][1,4]benzodiazepin-3-yl}[(2S)-2-(1-pyrrolidinylmethyl)pyrrolidinyl]methanone]	52%	–
Cc1cc(C(=O)N2Cc3ccc(C(=O)NCCCn4ccnc4)n3Cc3ccccc32)ccc1-c1ccccc1C(F)(F)F [Example 135, N-[3-(1H-Imidazol-1-yl)propyl]-10-{[2-methyl-2′-(trifluoromethyl)[1,1′-biphenyl]-4-yl]carbonyl}-10,11-dihydro-5H-pyrrolo[2,1-c][1,4]benzodiazepine-3-carboxamide]	–	24%
COc1ccccc1-c1ccc(C(=O)N2Cc3ccc(C(=O)N4CCC(N5CCCC5)CC4)n3Cc3ccccc32)cc1OC [Example 145, {10-[(2,2′-Dimethoxy[1,1′-biphenyl]4-yl)carbonyl]-10,11-dihydro-5H-pyrrolo[2,1-c][1,4]benzodiazepin-3-yl}[4-(1-pyrrolidinyl)-l-piperidinyl]methanone]	53%	–
